Results as given in patent US9206156B2, “Substituted indole derivatives” (GRÜNENTHAL GMBH, priority 2008, dated 2015).

Key:
[1] = molecular target: T1, ORL1 receptor (Homo sapiens, UniProt P41146); assay: ORL1 receptor binding assay with 3H-nociceptin/orphanin FQ (WGA-SPA beads); details: c=1 μM test substance; 0.5 nM 3H-nociceptin/orphanin FQ; membranes of recombinant CHO-ORL1 cells
T1 construct: expressed in transfected cells; host or cells: CHO (recombinant CHO-ORL1 cells), membranes
Experimental: Measurement of ORL1 Binding
The cyclohexane derivatives having the general formula I were investigated in a receptor binding assay with ^3H-nociceptin/orphanin FQ with membranes of recombinant CHO—ORL1 cells. This test system was conducted in accordance with the method described by Ardati et al. (Mol. Pharmacol., 51, 1997, p. 816-824). The concentration of ^3H-nociceptin/orphanin FQ in these tests was 0.5 nM. The binding assays were carried out with 20 μg amounts of membrane protein per 200 μl batch in 50 mM Hepes, pH 7.4, 10 mM MgCl2 and 1 mM EDTA. The binding to the ORL1 receptor was determined using 1 mg amounts of WGA-SPA beads (Amersham-Pharmacia, Freiburg, Germany), by incubation of the batch for one hour at room temperature and subsequent measurement in a Trilux scintillation counter (Wallac, Finland). The affinity is given in Table 1 as the nanomolar Ki value or in % inhibition at c=1 μM.

[2] = molecular target: T2, human μ-opiate receptor (Homo sapiens, UniProt P35372); assay: μ-opiate receptor binding assay with [3H] naloxone (WGA-SPA beads); details: 1 μmol/l test substance, 1 nmol/l [3H] naloxone, CHO-K1 cell membranes expressing human μ-opiate receptor
T2 construct: purchased NEN, Zaventem, Belgium RB-HOM; host or cells: CHO-K1 cells (membrane preparation)
Experimental: The receptor affinity to the human μ-opiate receptor was determined in a homogeneous batch in microtitre plates. To this end, dilution series of the substituted indole derivative to be tested were incubated for 90 minutes at room temperature with a receptor membrane preparation (15-40 μg protein per 250 μl incubation batch) of CHO-K1 cells, which express the human μ-opiate receptor (RB—HOM receptor membrane preparation from NEN, Zaventem, Belgium), in the presence of 1 nmol/l of the radioactive ligand [^3H] naloxone (NET719, NEN, Zaventem, Belgium) and 1 mg of WGA-SPA beads (wheat germ agglutinin SPA beads from Amersham/Pharmacia, Freiburg, Germany) in a total volume of 250 μl. 50 mmol/l tris-HCl supplemented with 0.05 wt. % sodium azide and 0.06 wt. % bovine serum albumin were used as the incubation buffer. In order to determine the non-specific binding, 25 μmol/l of naloxone were also added. At the end of the ninety-minute incubation period the microtitre plates were centrifuged for 20 minutes at 1000 g and the radioactivity was measured in a β counter (Microbeta-Trilux, PerkinElmer Wallac, Freiburg, Germany). The percentage displacement of the radioactive ligand from its binding to the human μ-opiate receptor was determined at a test substance concentration of 1 μmol/l and stated as the percentage inhibition (% inhibition) of the specific binding. In some cases the percentage displacement due to differing concentrations of the compounds having the general formula I to be tested was used to calculate the IC50 inhibition concentrations which bring about a 50-percent displacement of the radioactive ligand. Ki values for the test substances were obtained by extrapolation using the Cheng-Prusoff equation.

T2 sequence (P35372 whole entry): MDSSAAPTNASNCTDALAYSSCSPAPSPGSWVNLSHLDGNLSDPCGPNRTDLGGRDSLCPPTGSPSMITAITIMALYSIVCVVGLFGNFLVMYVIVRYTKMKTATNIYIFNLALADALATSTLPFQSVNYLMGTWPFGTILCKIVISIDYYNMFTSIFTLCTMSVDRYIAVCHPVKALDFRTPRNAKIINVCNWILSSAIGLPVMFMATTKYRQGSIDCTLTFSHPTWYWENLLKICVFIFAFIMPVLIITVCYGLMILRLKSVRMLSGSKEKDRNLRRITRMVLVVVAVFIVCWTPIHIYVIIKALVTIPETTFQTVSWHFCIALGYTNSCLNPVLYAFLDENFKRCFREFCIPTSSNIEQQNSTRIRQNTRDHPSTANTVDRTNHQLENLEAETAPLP
T1 sequence (P41146 whole entry): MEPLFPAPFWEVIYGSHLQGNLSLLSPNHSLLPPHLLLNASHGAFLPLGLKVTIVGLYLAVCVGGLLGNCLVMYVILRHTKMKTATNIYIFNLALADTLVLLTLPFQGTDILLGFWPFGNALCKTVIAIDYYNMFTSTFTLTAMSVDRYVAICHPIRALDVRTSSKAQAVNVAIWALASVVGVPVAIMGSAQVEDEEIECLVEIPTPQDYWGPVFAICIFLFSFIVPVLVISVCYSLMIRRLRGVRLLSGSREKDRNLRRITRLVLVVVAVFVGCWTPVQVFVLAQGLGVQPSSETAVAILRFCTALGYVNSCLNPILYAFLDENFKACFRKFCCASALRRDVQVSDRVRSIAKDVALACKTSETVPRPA

SMILES	inhibition at 1 µM [1]	inhibition at 1 µM [2]	other results
CN(C)c1ccc2cc(C(=O)NCCC(=O)N3CCC(c4ccccc4)(N(C)C)CC3)[nH]c2c1 [Example 120, 6-(dimethylamino)-N-(3-(4-(dimethylamino)-4-phenylpiperidin-1-yl)-3-oxopropyl)-1H-indole-2-carboxamide]	45%	60%	
CN(C)C1(c2cccs2)CCN(C(=O)CC(NC(=O)Cc2c[nH]c3cc(F)ccc23)c2ccccc2)CC1 (centres unmarked) [Example 93, N-(3-(4-(dimethylamino)-4-(thiophen-2-yl)piperidin-1-yl)-3-oxo-1-phenylpropyl)-2-(6-fluoro-1H-indol-3-yl)acetamide]	88%	97%	
Cc1[nH]c2ccccc2c1CN1CCCC(C(=O)N2CCC(c3ccccc3)(N(C)C)CC2)C1 (centres unmarked) [Example 156, (4-(dimethylamino)-4-phenylpiperidin-1-yl)(1-((2-methyl-1H-indol-3-yl)methyl)piperidin-3-yl) methanone]	39%	57%	
CN(C)c1ccc2cc(C(=O)N3CCCC(C(=O)N4CCC(c5ccccc5)(N(C)C)CC4)C3)[nH]c2c1 (centres unmarked) [Example 136, (6-(dimethylamino)-1H-indol-2-yl)(3-(4-(dimethylamino)-4-phenylpiperidine-1-carbonyl)piperidin-1-yl)methanone]	24%	46%	
CN(CCN1CCC(c2ccccc2)(N(C)C)CC1)C(=O)c1c[nH]c2ccccc12 [Example 12, N-(2-(4-(Dimethylamino)-4-phenylpiperidin-1-yl)ethyl)-N-methyl-1H-indole-3-carboxamide]	67%	84%	
CN(CCN1CCC(c2ccccc2)(N(C)C)CC1)C(=O)CCc1cn(C)c2ccccc12 [Example 14, N-(2-(4-(Dimethylamino)-4-phenylpiperidin-1-yl)ethyl)-N-methyl-3-(1-methyl-1H-indol-3-yl)propanamide]	48%	73%	
CC(CC(=O)N(C)CCN1CCC(c2ccccc2)(N2CCCC2)CC1)c1c[nH]c2ccccc12 (centres unmarked) [Example 57, 3-(1H-Indol-3-yl)-N-methyl-N-(2-(4-phenyl-4-(pyrrolidin-1-yl)piperidin-1-yl)ethyl)butanamide]		45%	
CN(CCN1CCC(c2ccccc2)(N(C)C)CC1)Cc1c[nH]c2ccccc12 [Example 186, 1-(2-(((1H-indol-3-yl)methyl)(methy)amino)ethyl)-N,N-dimethyl-4-phenylpiperidin-4-amine]			% Inhibition (ORL1) at 1 μM [1]: 88%; % Inhibition (μ) at 1 μM ([2]; 1 µM): 102%
CCCCC1(N(C)C)CCN(CCN(C)C(=O)c2cc3cc(OC)ccc3[nH]2)CC1 [Example 65, N-(2-(4-Butyl-4-(dimethylamino)piperidin-1-yl)ethyl)-5-methoxy-N-methyl-1H-indole-2-carboxamide]		42%	
CCCCC1(N(C)C)CCN(CCN(C)C(=O)CCc2cn(C)c3ccccc23)CC1 [Example 49, N-(2-(4-Butyl-4-(dimethylamino)piperidin-1-yl)ethyl)-N-methyl-3-(1-methyl-1H-indol-3-yl)propanamide]	17%	52%	
CN(CCN1CCC(c2ccccc2)(N2CCCC2)CC1)C(=O)CCc1cn(C)c2ccccc12 [Example 48, N-Methyl-3-(1-methyl-1H-indol-3-yl)-N-(2-(4-phenyl-4-(pyrrolidin-1-yl)piperidin-1-yl)ethyl)propanamide]		14%	
CN(C)C1(c2ccccc2)CCN(C(=O)C2CCCN(C(=O)c3cc4cc(F)ccc4[nH]3)C2)CC1 (centres unmarked) [Example 104, (4-(dimethylamino)-4-phenylpiperidin-1-yl)(1-(5-fluoro-1H-indole-2-carbonyl)piperidin-3-yl)methanone]	64%	89%	
CN(C(=O)C1CCCc2c1[nH]c1ccc(Cl)cc21)C(C(=O)N1CCC(c2cccs2)(N(C)C)CC1)c1ccccc1 (centres unmarked) [Example 134, 6-chloro-N-(2-(4-(dimethylamino)-4-(thiophen-2-yl)piperidin-1-yl)-2-oxo-1-phenylethyl)-N-methyl-2,3,4,9-tetrahydro-1H-carbazole-1-carboxamide]	29%	34%	
CN(C)C1(c2cccs2)CCN(CCNC(=O)C2CCCc3c2[nH]c2ccc(Cl)cc32)CC1 (centres unmarked) [Example 7, 6-Chloro-N-(2-(4-(dimethylamino)-4-(thiophen-2-yl)piperidin-1-yl)ethyl)-2,3,4,9-tetrahydro-1H-carbazole-1-carboxamide]	62%	95%	
CN(CCN1CCC(c2ccccc2)(N2CCCC2)CC1)C(=O)c1c[nH]c2ccccc12 [Example 46, N-Methyl-N-(2-(4-phenyl-4-(pyrrolidin-1-yl)piperidin-1-yl)ethyl)-1H-indole-3-carboxamide]		20%	
CN(CCN1CCC(c2ccccc2)(N2CCCC2)CC1)C(=O)c1ccc2cc[nH]c2c1 [Example 54, N-Methyl-N-(2-(4-phenyl-4-(pyrrolidin-1-yl)piperidin-1-yl)ethyl)-1H-indole-6-carboxamide]		15%	
CCCCC1(N(C)C)CCN(CCN(C)C(=O)c2ccc3cc[nH]c3c2)CC1 [Example 55, N-(2-(4-Butyl-4-(dimethylamino)piperidin-1-yl)ethyl)-N-methyl-1H-indole-6-carboxamide]		66%	
CCCCC1(N(C)C)CCN(CCN(C)Cc2ccc3[nH]ccc3c2)CC1 [Example 141, 1-(2-(((1H-indol-5-yl)methyl)(methyl)amino)ethyl)-4-butyl-N,N-dimethylpiperidin-4-amine]		82%	
CN(CCN1CCC(c2ccccc2)(N2CCCC2)CC1)Cc1cccc2[nH]ccc12 [Example 159, N-((1H-indol-4-yl)methyl)-N-methyl-2-(4-phenyl-4-(pyrrolidin-1-yl)piperidin-1-yl)ethanamine]		64%	
CCCCC1(N(C)C)CCN(CCN(C)C(=O)c2ccc3ccn(C)c3c2)CC1 [Example 38, N-(2-(4-Butyl-4-(dimethylamino)piperidin-1-yl)ethyl)-N,1-dimethyl-1H-indole-6-carboxamide]		68%	
CN(CCN1CCC(c2ccccc2)(N2CCCC2)CC1)C(=O)c1cccc2c1ccn2C [Example 40, N,1-Dimethyl-N-(2-(4-phenyl-4-(pyrrolidin-1-yl)piperidin-1-yl)ethyl)-1H-indole-4-carboxamide]		40%	
CN(CCN1CCC(c2ccccc2)(N2CCCC2)CC1)Cc1c[nH]c2ccccc12 [Example 137, N-((1H-indol-3-yl)methyl)-N-methyl-2-(4-phenyl-4-(pyrrolidin-1-yl)piperidin-1-yl)ethanamine]		82%	
CC(C)C(CC(=O)N(C)CCN1CCC(c2ccccc2)(N2CCCC2)CC1)c1c[nH]c2ccccc12 (centres unmarked) [Example 32, 3-(1H-Indol-3-yl)-N,4-dimethyl-N-(2-(4-phenyl-4-(pyrrolidin-1-yl)piperidin-1-yl)ethyl)pentanamide]		61%	
COc1ccc2[nH]c(C(=O)N(C)CCN3CCC(c4ccccc4)(N4CCCC4)CC3)cc2c1 [Example 64, 5-Methoxy-N-methyl-N-(2-(4-phenyl-4-(pyrrolidin-1-yl)piperidin-1-yl)ethyl)-1H-indole-2-carboxamide]		18%	
CCCCC1(N(C)C)CCN(CCN(C)C(=O)c2c[nH]c3ccccc23)CC1 [Example 47, N-(2-(4-Butyl-4-(dimethylamino)piperidin-1-yl)ethyl)-N-methyl-1H-indole-3-carboxamide]		61%	
CN(CCN1CCC(c2ccccc2)(N2CCCC2)CC1)Cc1c[nH]c2ccc(Br)cc12 [Example 153, N-((5-bromo-1H-indol-3-yl)methyl)-N-methyl-2-(4-phenyl-4-(pyrrolidin-1-yl)piperidin-1-yl)ethanamine]		93%	
CCCCC1(N(C)C)CCN(CCN(C)Cc2cccc3[nH]ccc23)CC1 [Example 160, 1-(2-(((1H-indol-4-yl)methyl)(methy)amino)ethyl)-4-butyl-N,N-dimethylpiperidin-4-amine]			% Inhibition (μ) at 1 μM [2]: 87%
